Experiment [1] has as its system Pseudomonas aeruginosa J-272. As to the kind of experiment: ED50 in mice infected intraperitoneally with Pseudomonas aeruginosa. Format: in vivo, ddY male mice. Conditions: subcutaneous 1 h and 3 h after inoculation, 1 × 10^4 cells inoculated i.p. in 5% mucin, survival five days after injection. On the procedure: Five-week-old ddY male mice (five constituting one group) weighing 21 to 25 g on average were administered intraperitoneally with 5% mucin suspensions of test microorganisms that were incubated in brain heart infusion agar plates overnight at 37° C.
One hour and three hours after the inoculation, the mice were injected subcutaneously with various concentrations of the test compounds. The ED50 of each test compound was determined from the number of the mice that were still alive five days after injection of the respective doses.

The test system of experiment [2] is Pseudomonas aeruginosa J-272. As to the kind of experiment: MIC, agar plate doubling dilution method. The class given is cell-based. Conditions: J272, HI agar, 37° C., 20 hours, read-out: minimum inhibitory concentration (MIC). The procedure: (§1) Invitro antibacterial activity was measured by the agar plate doubling dilution method described below. A test culture incubated overnight in a heart infusion broth was diluted by 100 to 1000 fold and one […] of the culture was inoculated on heart infusion agars (HI agar) containing various concentrations of a specific compound and the inoculates were incubated at 37° C. for 20 hours.

Experiment [3] concerns Bacillus subtilis POI-219. As to the kind of experiment: MIC, agar plate doubling dilution method. Conditions: POI219, HI agar, 37° C., 20 hours, read-out: minimum inhibitory concentration (MIC). Format: cell-based. On the procedure: as §1
A further experiment concerns Proteus mirabilis 9'. As to the kind of experiment: MIC, agar plate doubling dilution method. Format: cell-based. The following applies: HI agar, 37° C., 20 hours, read-out: minimum inhibitory concentration (MIC). The procedure:
as §1

The next experiment deals with Escherichia coli NIHJ. As to the kind of experiment: MIC, agar plate doubling dilution method. Conditions: HI agar, 37° C., 20 hours, read-out: minimum inhibitory concentration (MIC). The class given is cell-based. On the procedure: as §1
In experiment [4] the test system is Pseudomonas aeruginosa J-169-CM-222. As to the kind of experiment: MIC, agar plate doubling dilution method. Conditions: J169CM222, HI agar, 37° C., 20 hours, read-out: minimum inhibitory concentration (MIC). The class given is cell-based. The procedure:
as §1

Experiment [5] deals with Klebsiella pneumoniae 15c. As to the kind of experiment: MIC, agar plate doubling dilution method. Format: cell-based. Conditions: HI agar, 37° C., 20 hours, read-out: minimum inhibitory concentration (MIC). On the procedure:
as §1

Another experiment relates to Salmonella paratyphi A. As to the kind of experiment: MIC, agar plate doubling dilution method. Format: cell-based. The following applies: Salmonella enterica, 20 h, read-out: minimum inhibitory concentration (MIC). On the procedure: as §1
In experiment [6] the test system is Pseudomonas aeruginosa J-169. As to the kind of experiment: MIC, agar plate doubling dilution method. Format: cell-based. The following applies: J169, HI agar, 37° C., 20 hours, read-out: minimum inhibitory concentration (MIC). On the procedure:
as §1

The subject of experiment [7] is Staphylococcus aureus 209P. As to the kind of experiment: MIC, agar plate doubling dilution method. The class given is cell-based. Conditions: HI agar, 37° C., 20 hours, read-out: minimum inhibitory concentration (MIC). On the procedure: as §1
In the next experiment the test system is Shigella flexneri 2b. As to the kind of experiment: MIC, agar plate doubling dilution method. The class given is cell-based. Conditions: HI agar, 37° C., 20 hours, read-out: minimum inhibitory concentration (MIC). On the procedure: as §1

Values after ≈ are worked out from the molar mass of the structure shown.

With `CN(C(=O)N[C@@H](C(=O)N[C@@H]1C(=O)N2[C@@H]1SC(C)(C)[C@@H]2C(=O)O)c1ccccc1)C(=O)c1ccc(O)c(O)c1` [compound Z, 6-[D(-)-α-{3-(3,4-dihydroxybenzoyl)-3-methyl-1-ureido}-α-phenylacetamido]penicillanic acid, reference compound], in experiment [1], the “ED50 (SC)” value is on record as 2.30 mg/head. For the same compound, the MIC was 0.1 µg/mL (≈ 0.184 µM) in experiment [2]; 0.1 µg/mL (≈ 0.184 µM) in [3]; 0.78 µg/mL (≈ 1.44 µM) with Proteus mirabilis 9'; 0.2 µg/mL (≈ 0.369 µM) in the experiment with Escherichia coli NIHJ; 0.4 µg/mL (≈ 0.737 µM) in experiment [4]; no more than 0.1 µg/mL in experiment [5]. Moreover, the MIC was no more than 0.1 µg/mL in the experiment on Salmonella paratyphi A, 0.2 µg/mL (≈ 0.369 µM) in [6], 0.4 µg/mL (≈ 0.737 µM) in [7] and no more than 0.1 µg/mL in the experiment on Shigella flexneri 2b.
As to `CC(=O)OCCCN(C(=O)N[C@@H](C(=O)N[C@@H]1C(=O)N2[C@@H]1SC(C)(C)[C@@H]2C(=O)O)c1ccccc1)C(=O)c1ccc(O)c(O)c1` [compound (e), 6-[D(-)-α-{3-(3,4-dihydroxybenzoyl)-3-(3-acetoxypropyl)-1-ureido}-α-phenylacetamido]-penicillanic acid], the “ED50 (SC)” value in experiment [1] is listed as 1.71 mg/head. In addition, the MIC is 0.4 µg/mL (≈ 0.636 µM) in experiment [2]; 0.4 µg/mL (≈ 0.636 µM) in experiment [3]; 0.78 µg/mL (≈ 1.24 µM) in the experiment with Proteus mirabilis 9'; 0.78 µg/mL (≈ 1.24 µM) in the experiment on Escherichia coli NIHJ; 6.25 µg/mL (≈ 9.94 µM) in [4]; 0.4 µg/mL (≈ 0.636 µM) in experiment [5]. Also, the MIC in the experiment on Salmonella paratyphi A was no more than 0.1 µg/mL; in experiment [6] it was 3.12 µg/mL (≈ 4.96 µM); in experiment [7], 1.56 µg/mL (≈ 2.48 µM); in the experiment with Shigella flexneri 2b, no more than 0.1 µg/mL.
On to `CC1(C)S[C@@H]2[C@H](NC(=O)[C@H](NC(=O)N(CCCO)C(=O)c3ccc(O)c(O)c3)c3ccc(O)cc3)C(=O)N2[C@H]1C(=O)O` [compound (f), 6-[D(-)-α-{3-(3,4-dihydroxybenzoyl)-3-(3-hydroxypropyl)-1-ureido}-α-(4-hydroxyphenyl)acetamido]penicillanic acid], for which, in experiment [1], the “ED50 (SC)” value came to 1.18 mg/head. Also, the MIC came out at 0.2 µg/mL (≈ 0.332 µM) in experiment [2]; 0.4 µg/mL (≈ 0.664 µM) in [3]; 1.56 µg/mL (≈ 2.59 µM) in the experiment with Proteus mirabilis 9'; 0.78 µg/mL (≈ 1.29 µM) in the experiment on Escherichia coli NIHJ; 3.12 µg/mL (≈ 5.18 µM) in [4]; 0.4 µg/mL (≈ 0.664 µM) in [5]. For the same compound, the MIC is no more than 0.1 µg/mL with Salmonella paratyphi A, 0.78 µg/mL (≈ 1.29 µM) in experiment [6], 0.78 µg/mL (≈ 1.29 µM) in [7] and no more than 0.1 µg/mL in the experiment on Shigella flexneri 2b.
For `CCN1CCN(C(=O)N[C@@H](C(=O)N[C@@H]2C(=O)N3[C@@H]2SC(C)(C)[C@@H]3C(=O)O)c2ccccc2)C(=O)C1=O` [piperacillin, 6-[D(-)-α-(4-ethyl-2,3-dioxo-1-piperazinylcarbonylamino)phenylacetamido]penicillanic acid, reference compound], the “ED50 (SC)” value in [1] was determined as 10.0 mg/head. Moreover, the MIC turned out to be 12.5 µg/mL (≈ 24.2 µM) in experiment [2]; 0.2 µg/mL (≈ 0.386 µM) in experiment [3]; 0.78 µg/mL (≈ 1.51 µM) in the experiment on Proteus mirabilis 9'; 0.2 µg/mL (≈ 0.386 µM) in the experiment on Escherichia coli NIHJ; 25 µg/mL (≈ 48.3 µM) in experiment [4]; 3.12 µg/mL (≈ 6.03 µM) in experiment [5]. Further, the MIC was 0.4 µg/mL (≈ 0.773 µM) in the experiment with Salmonella paratyphi A, 12.5 µg/mL (≈ 24.2 µM) in experiment [6], no more than 0.2 µg/mL in [7] and 0.78 µg/mL (≈ 1.51 µM) with Shigella flexneri 2b.
Regarding `CC1(C)S[C@@H]2[C@H](NC(=O)[C@H](NC(=O)N(CCCO)C(=O)c3ccc(O)c(O)c3)c3ccccc3)C(=O)N2[C@H]1C(=O)O` [compound (a), 6-[D(-)-α-{3-(3,4-dihydroxybenzoyl)-3-(3-hydroxypropyl)-1-ureido}-α-phenylacetamido]penicillanic acid], in [1], the “ED50 (SC)” value is on record as 0.61 mg/head. The MIC was 0.4 µg/mL (≈ 0.682 µM) in experiment [2]; 0.2 µg/mL (≈ 0.341 µM) in experiment [3]; 1.56 µg/mL (≈ 2.66 µM) with Proteus mirabilis 9'; 0.4 µg/mL (≈ 0.682 µM) with Escherichia coli NIHJ; 3.12 µg/mL (≈ 5.32 µM) in experiment [4]; 0.4 µg/mL (≈ 0.682 µM) in experiment [5]. Moreover, the MIC with Salmonella paratyphi A is no more than 0.1 µg/mL; in experiment [6], 0.78 µg/mL (≈ 1.33 µM); in experiment [7], 0.78 µg/mL (≈ 1.33 µM); in the experiment with Shigella flexneri 2b, no more than 0.1 µg/mL.
With `COCCN(C(=O)N[C@@H](C(=O)N[C@@H]1C(=O)N2[C@@H]1SC(C)(C)[C@@H]2C(=O)O)c1ccccc1)C(=O)c1ccc(O)c(O)c1` [compound (d), 6-[D(-)-α-{3-(3,4-dihydroxybenzoyl)-3-(2-methyoxyethyl)-1-ureido}-α-phenylacetamide]-penicillanic acid], in [1], the “ED50 (SC)” value worked out at 1.52 mg/head. Further, the MIC in [2] turned out to be 0.78 µg/mL (≈ 1.33 µM); in experiment [3], 0.4 µg/mL (≈ 0.682 µM); with Proteus mirabilis 9', 0.2 µg/mL (≈ 0.341 µM); in the experiment with Escherichia coli NIHJ, 0.4 µg/mL (≈ 0.682 µM); in experiment [4] it was 3.12 µg/mL (≈ 5.32 µM); in experiment [5], 0.2 µg/mL (≈ 0.341 µM). The MIC with Salmonella paratyphi A is no more than 0.1 µg/mL; in experiment [6] it was 3.12 µg/mL (≈ 5.32 µM); in experiment [7], 0.78 µg/mL (≈ 1.33 µM); in the experiment on Shigella flexneri 2b it was no more than 0.1 µg/mL.
As to `CC1(C)S[C@@H]2[C@H](NC(=O)[C@H](NC(=O)N(CCO)C(=O)c3ccc(O)c(O)c3)c3ccccc3)C(=O)N2[C@H]1C(=O)O` [compound (b), 6-[D(-)-α-{3-(3,4-dihydroxybenzoyl)-3-(2-hydroxyethyl)-1-ureido}-α-phenylacetamide]penicillanic acid], the “ED50 (SC)” value in experiment [1] is given as 1.20 mg/head. In addition, the MIC is 0.78 µg/mL (≈ 1.36 µM) in experiment [2]; 0.78 µg/mL (≈ 1.36 µM) in [3]; 3.12 µg/mL (≈ 5.45 µM) with Proteus mirabilis 9'; 6.25 µg/mL (≈ 10.9 µM) in the experiment on Escherichia coli NIHJ; 25 µg/mL (≈ 43.7 µM) in [4]; 3.12 µg/mL (≈ 5.45 µM) in experiment [5]. Further, the MIC in the experiment on Salmonella paratyphi A was no more than 0.1 µg/mL; in experiment [6], 3.12 µg/mL (≈ 5.45 µM); in experiment [7], 1.56 µg/mL (≈ 2.72 µM); in the experiment with Shigella flexneri 2b, no more than 0.1 µg/mL.
For `CC1(C)S[C@@H]2[C@H](NC(=O)[C@H](NC(=O)N(CCOCCO)C(=O)c3ccc(O)c(O)c3)c3ccccc3)C(=O)N2[C@H]1C(=O)O` [compound (c), 6-[D(-)-α-[3-(3,4-dihydroxybenzoyl)-3-{2-(2-hydroxyethoxy)ethyl}-1-ureidol]-α-phenylacetamido]-penicillanic acid], the “ED50 (SC)” value in [1] was 1.48 mg/head. Further, the MIC in experiment [2] worked out at 0.2 µg/mL (≈ 0.324 µM); in experiment [3], 0.1 µg/mL (≈ 0.162 µM); with Proteus mirabilis 9', 1.56 µg/mL (≈ 2.53 µM); in the experiment on Escherichia coli NIHJ it was 0.4 µg/mL (≈ 0.649 µM); in [4], 1.56 µg/mL (≈ 2.53 µM); in [5], 0.4 µg/mL (≈ 0.649 µM). The MIC was no more than 0.1 µg/mL in the experiment with Salmonella paratyphi A, 0.78 µg/mL (≈ 1.26 µM) in experiment [6], 0.4 µg/mL (≈ 0.649 µM) in [7] and no more than 0.1 µg/mL with Shigella flexneri 2b.

For the origin of these results see patent US4355038A, “α-Substituted ureido-benzylpenicillanic acids” (Chugai Seiyaku Kabushiki Kaisha, priority 1980, dated 1982).
